The pKa sets of Baltruschat and Czodrowski (2020)

Q: For `CC(C)(C)NCC(O)c1cc(O)cc(O)c1` (centres undefined), which pKa is on record?
A: Its pKa is 8.7.

Q: For `O=C(NCC1CCCCN1)c1cc(OCC(F)(F)F)ccc1OCC(F)(F)F` (centres undefined), which pKa is on record?
A: The pKa was 9.3.

Q: With `COc1ccc2c(c1)N(C[C@H](C)CN(C)C)c1ccccc1S2` as the compound, how does the pKa read?
A: The pKa was 9.19.

Q: With `CN1CCCC(n2nc(Cc3ccc(Cl)cc3)c3ccccc3c2=O)CC1` (centres undefined) as the compound, how does the pKa read?
A: The pKa was 9.54.

Q: Which pKa does the source give for `CNS(=O)(=O)Cc1ccc2[nH]cc(CCN(C)C)c2c1` here?
A: The pKa was 9.5.

Q: For `CC(C)NCC(O)c1ccc(NS(C)(=O)=O)cc1` (centres undefined), which pKa is on record?
A: Its pKa is 9.76.

Q: Which pKa does the source give for `CC(CN1c2ccccc2Sc2ccccc21)N(C)C` (centres undefined) here?
A: Its pKa is 9.1.

Q: For `CC(C)(C)NCC(O)COc1cccc2c1C[C@H](O)[C@H](O)C2` (some centres undefined), which pKa is on record?
A: The pKa was 9.67.

Q: Which pKa does the source give for `Cc1ccc(O)c([C@@H](CCN(C(C)C)C(C)C)c2ccccc2)c1` here?
A: Its pKa is 9.8.

Q: Which pKa does the source give for `O=c1n(CCCN2CCN(c3cccc(Cl)c3)CC2)nc2ccccn12` here?
A: The pKa was 6.79.

Q: For `CN(C)CCCN1c2ccccc2CCc2ccc(Cl)cc21`, which pKa is on record?
A: Its pKa is 9.38.

Q: For `CC(C)(C)NCC(O)COc1nsnc1N1CCOCC1` (centres undefined), which pKa is on record?
A: The pKa was 8.8.

Q: Which pKa does the source give for `CN1CCN2c3ncccc3Cc3ccccc3C2C1` (centres undefined) here?
A: The pKa was 7.3.

Q: For `COc1ccc([C@@H]2Sc3ccccc3N(CCN(C)C)C(=O)[C@@H]2OC(C)=O)cc1`, which pKa is on record?
A: The pKa was 8.06.

Q: With `OC(CNCC(O)C1CCc2cc(F)ccc2O1)C1CCc2cc(F)ccc2O1` (centres undefined) as the compound, how does the pKa read?
A: The pKa was 8.22.

Q: For `CN(C)CCC=C1c2ccccc2CCc2ccccc21`, which pKa is on record?
A: Its pKa is 9.4.

Q: With `CCOC(=O)C1(c2ccccc2)CCN(C)CC1` as the compound, how does the pKa read?
A: Its pKa is 8.7.

Q: With `COc1ccc2c3c1O[C@H]1[C@@H](O)C=C[C@H]4[C@@H](C2)N(C)CC[C@@]341` as the compound, how does the pKa read?
A: The pKa was 8.2.

Q: With `Cc1ccccc1OCC(O)CNCCOc1ccc(C(N)=O)cc1` (centres undefined) as the compound, how does the pKa read?
A: Its pKa is 7.9.

Q: Which pKa does the source give for `CNCCCC12CCC(c3ccccc31)c1ccccc12` here?
A: The pKa was 10.5.

Q: Which pKa does the source give for `CCN(C)C(=O)Oc1cccc([C@H](C)N(C)C)c1` here?
A: The pKa was 8.99.

Q: For `CNCC[C@@H](Oc1ccccc1C)c1ccccc1`, which pKa is on record?
A: The pKa was 10.1.

Q: For `CN(C)CCCN1c2ccccc2Sc2ccccc21`, which pKa is on record?
A: The pKa was 9.28.

Q: With `CC(CCc1ccccc1)NCC(O)c1ccc(O)c(C(N)=O)c1` (centres undefined) as the compound, how does the pKa read?
A: The pKa was 7.4.

Q: Which pKa does the source give for `CC(CN(C)C)CN1c2ccccc2CCc2ccccc21` (centres undefined) here?
A: The pKa was 9.24.

Q: Which pKa does the source give for `CC(C)NCC(O)COc1ccc(CCOCC2CC2)cc1` (centres undefined) here?
A: The pKa was 9.21.

Q: For `CNCCC=C1c2ccccc2CCc2ccccc21`, which pKa is on record?
A: Its pKa is 10.1.

Q: With `CCc1nn(CCCN2CCN(c3cccc(Cl)c3)CC2)c(=O)n1CCOc1ccccc1` as the compound, how does the pKa read?
A: Its pKa is 6.5.

Q: Which pKa does the source give for `CC(C)NCC(O)COc1ccc(COCCOC(C)C)cc1` (centres undefined) here?
A: Its pKa is 9.57.
